Measured values as given in patent US8518997B2, “4-(phenoxyalkyl)thio)-phenoxyacetic acids and analogs” (Janssen Pharmaceutica N.V., priority 2003, dated 2013).
pEC50: −log10 of the molar value.

Columns and labels:
[1] = tested on: differentiated THP-1 monocytes; settings: cited from earlier work
[2] = biological target: T1, PPAR delta (Homo sapiens, UniProt Q03181); assay: Transfection assay for PPAR receptors (PPAR-Gal4 / Gal4-Luciferase reporter in HEK293 cells); format: cell-based; settings: HEK293 cells co-transfected with PPAR-Gal4 (δ) receptor and Gal4-Luciferase reporter, 24 hours; multiple EC50's = multiple measurements; Table 2
T1 sequence (Q03181 171-441 limits assumed): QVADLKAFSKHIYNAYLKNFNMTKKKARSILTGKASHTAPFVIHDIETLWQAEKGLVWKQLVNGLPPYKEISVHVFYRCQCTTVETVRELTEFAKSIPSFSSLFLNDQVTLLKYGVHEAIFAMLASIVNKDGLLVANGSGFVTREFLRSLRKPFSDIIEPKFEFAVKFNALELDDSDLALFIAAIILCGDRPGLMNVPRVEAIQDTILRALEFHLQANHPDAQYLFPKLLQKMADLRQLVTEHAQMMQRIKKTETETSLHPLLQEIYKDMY
Method: Transfection Assay Method for PPAR Receptors
HEK293 cells were grown in DMEM/F-12 Media supplemented with 10% FBS and glutamine (GIBCOBRL). The cells were co-transfected with DNA for PPAR-Gal4 (PPARα, γ or δ) receptor and Gal4-Luciferase Reporter using the DMRIE-C Reagent. On the following day, the medium was replaced with 5% Charcoal treated FBS growth medium. After six hours, cells were trypsinized and seeded at a density of 50,000 cell/well into 96 well plates and incubated overnight at 37° C. in a 5% CO2 incubator. Cells were then treated with test compounds or vehicle and incubated for 24 hours at 37° C. in a 5% CO2 incubator. Luciferase activity was assayed using the Steady-Glo Luciferase Assay Kit from Promega. […] Steady-Glo Luciferase Assay Kit was purchased from Promega Part# E254B.

Row | SMILES | ABCA1 mRNA expression [1] | cholesterol efflux [1] | pEC50 [2]
1 | Cc1cc(SCc2sc(-c3ccc(C(F)(F)F)cc3)nc2C)ccc1OCC(=O)O [GW501516] | induced | enhanced | –
2 | CCC(COc1ccc(C(F)(F)F)cc1)CSc1ccc(OCC(=O)O)cc1 (stereo not shown) [Compound 4, {4-[2-(4-Trifluoromethyl-phenoxymethyl)-butylsulfanyl]-phenoxy}-acetic acid] | – | – | 7.53
3 | Cc1ccc(OCCCSc2ccc(OCC(=O)O)c(C)c2)cc1 [Compound 8] | – | – | 6.67
